Laboratory results published in patent US7285282B2, “Mucin peptide with immunoenhancing properties” (University of Miami, priority 2001, dated 2007).
Where no end group is shown, it is not given here.

Legend:
DA-3/sec tumor targets = assay: Splenocyte cytotoxicity against DA-3/sec targets after in vitro MUC1/sec peptide; format: cell-based; conditions: peptide added in vitro for 5 days to splenocytes of normal and D1-DMBA-3 tumor bearing mice, FIG. 17
[1] = Toxicity in animals injected with the peptide; conditions: in vivo
YAC-1 = assay: NK cell assay, splenocytes pretreated with IEP, YAC-1 targets; format: cell-based, BALB/c mice; conditions: 10 μg IEP, 30-45 minutes pretreatment, 4-hour assay, FIG. 18
Description: As mentioned above, there is a unique 11 amino acid peptide present on the C-terminus of the MUC1/sec protein, but not on the MUC1/TM protein. […] We investigated the possible effects of the peptide on the cytotoxicity reaction. We tested it on yet another tumor model, i.e. the D1-DMBA-3 mammary tumor bearing mice. The DA-3 cell line was originally derived from this tumor, which is routinely passaged in vivo in our laboratory in the syngeneic BALB/c mice. […] The ability of this peptide to stimulate immune cells in a NK cell assay was tested. […] Therefore, to test for immunomodulatory activity of the immunoenhancing peptide (IEP), BALB/c splenocytes were pretreated for 30-45 minutes with 10 μg IEP and subsequently, chromium-labeled YAC-1 or EL-4 targets were added in a 4-hour assay as previously described (11).

DA-3/sec targets = assay: Effect of perforin inhibitor or anti-Fas antibody on killing by DA-3/sec primed splenocytes; format: cell-based, mice; conditions: FIG. 14, FIG. 15

Compound | Cytotoxicity against DA-3/sec tumor targets (DA-3/sec tumor targets) | Toxicity in injected animals [1] | Cytotoxicity of normal splenocytes against YAC-1 (YAC-1) | Effect on killing of DA-3/sec targets by primed splenocytes (DA-3/sec targets)
VSIGLSFPMLP [IEP] | significant levels of cytotoxicity | No toxicity has been detected | elevation of cytotoxic levels | 
C/C=C/[C@H]1O[C@@](O)([C@@H](C)[C@H](O)[C@H](C)[C@H]2OC(=O)/C(OC)=C/C(C)=C/[C@@H](C)[C@@H](O)[C@@H](CC)[C@@H](O)[C@H](C)C/C(C)=C/C=C/[C@@H]2OC)C[C@@H](O[C@H]2C[C@@H](O)[C@H](OC(N)=O)[C@@H](C)O2)[C@@H]1C [Concanamycin A] |  |  |  | effectively blocked killing of DA-3/sec targets in a dose-dependent manner
